Columns and labels:
[1] = test system: TYRO3-expressing BAF3 cells; experiment: BAF3-TYRO3 cell proliferation assay (CellTiter-Glo); format: cell-based, mouse
Description: To evaluate the cellular potency and selectivity within the TAM receptor family, mouse BAF3 cell lines with stable expression of AXL, MER, or TYRO3 were generated.
The cytoplasmic domain of AXL, MER, or TYRO3 fused with dimerization sequence and HA tag was cloned into a pMSCV (murine stem cell virus) vector with a puromycin-resistance marker to generate three constructs individually by electroporation into BAF3 cells. Single clones that were IL-3-independent and puromycin-resistant were selected and characterized. To evaluate effects on BAF3 cell proliferation, 1000 cells/well of BAF3, BAF3-AXL, BAF3 MER, or BAF3-TYRO3 cells were treated in the presence or absence of Compound 1 at various concentrations (10 concentration points with a three-fold dilution factor from the highest concentration of 10 μM) diluted in RPMI-1640 with 2% FBS for 48 hours in a 384-well plate. Cell viability was measured by ATP assay (CellTiter-Glo Assay, Promega, Madison, Wis.) according to the manufacturer's procedure. The data were converted to percent inhibition relative to DMSO control, and IC50 curves were fitted using GraphPad Prism software.

CTG-1302 tumors = experiment: Sarcoma PDX model CTG-1302 (leiomyosarcoma); format: in vivo, athymic nude mice; conditions: CTG-1302, 10, 30, 100 mg/kg BID oral, FIG. 9B
Description: (§1) MBT-2 cells were obtained from the Japanese Collection of Research Bioresources Cell Bank and were maintained in DMEM supplemented with 10% FBS. MC38 cells were obtained from the NCI. 4T1 cells were obtained from ATCC and maintained in RPMI media supplemented with 10% FBS. For MBT-2 experiments, 5×10^5 MBT-2 cells were inoculated subcutaneously into the right hind flank of 6- to 8-week-old C3H mice or athymic nude mice (Charles River Laboratories, Wilmington, Mass.). For MC38 studies, 12-week old female C57BL/6 mice were inoculated with brei of MC38 tumors (in-vivo passage 6) into the right hind flank. For 4T1 studies, 7.5×10^5 4 T1 cells were inoculated subcutaneously into the right hind flank of 6- to 8-week-old female BALB/c mice or athymic nude mice (Charles River Laboratories). […] Mice were monitored for tumor growth and overt tolerability over the course of the experiment. […] Tumor volume was calculated using the formula (L×W^2)/2, where L and W refer to the length and width dimensions, respectively. Tumor growth inhibition (TGI) was calculated using the formula (1−(VT/VC))×100, where VT is the tumor volume of the treatment group on the last day of treatment, and VC is the tumor volume of the control group on the last day of treatment. […]
The activity of Compound 1 in sarcoma PDX models was evaluated as described in Example H for PDX models. […] Three mice per group were analyzed. […]

MC38 tumor = MC38 tumor model, combination with checkpoint blockade; format: in vivo, C57BL/6 mice
Description: as §1, with “Laboratories). Mice were randomized by tumor volume with n=10-12 per group.” for “Laboratories).”

MBT-2 tumor = experiment: MBT-2 syngeneic tumor model; format: in vivo; conditions: MBT-2 in C3H mice, oral BID, FIG. 7A
Description: To test potential immunomodulatory activity of Compound 1 in vivo, antitumor efficacy studies were performed in syngeneic tumor models.
as §1

CC(C)C(=O)N1CCC(c2cc(-c3ccc(NC(=O)c4cn(C(C)C)c(=O)n(-c5ccccn5)c4=O)cc3)c3c(N)ncnn23)CC1 [Compound 1, N-(4-(4-Amino-7-(1-isobutyrylpiperidin-4-yl)pyrrolo[1,2-f][1,2,4]triazin-5-yl)phenyl)-1-isopropyl-2,4-dioxo-3-(pyridin-2-yl)-1,2,3,4-tetrahydropyrimidine-5-carboxamide]
selectivity against TYRO3 (cellular) ([1]; BAF3 transfectants): > 30 fold | IC50 ([1]; Mus musculus, BaF3, 48 hours, 2% FBS, read-out: IC50, growth of TYRO3-expressing BAF3 cells): 498 ± 161 nM | antitumor response (CTG-1302 tumors): robust antitumor response | antitumor activity (tumor volume) (MC38 tumor; MC38 in C57BL/6 mice, Compound 1 oral BID, anti-PD-L1 15 mg/kg i.p. twice a week, FIG. 8A): single-agent antitumor activity | proliferation of CD4+ and CD8+ tumor-infiltrating lymphocytes (Ki67+) (MC38 tumor; MC38 tumors, FIGS. 8B and 8C): induced proliferation | antitumor efficacy (tumor volume) (MBT-2 tumor): dose-dependent efficacy

Source: patent publication US12214036B2, “Combination therapy comprising AXL/MER and PD-1/PD-L1 inhibitors” (Incyte Corporation, priority 2020, dated 2025)
